Test results taken from patent US9695155B2, “Herbicidal substituted pyrimidinyloxy benzene compounds” (E. I. DU PONT DE NEMOURS AND COMPANY, priority 2013, dated 2017).

Columns and labels:
blackgrass = assay: Test D preemergence; assay type: in vivo, Alopecurus myosuroides; conditions: Alopecurus myosuroides, pre-emergence; for pest or weed control at 31 g/ha: 31 g ai/ha; for pest or weed control at 62 g/ha: 62 g ai/ha; for pest or weed control at 125 g/ha: 125 g ai/ha
From the text: (§1) Seeds of plant species selected from bluegrass (annual bluegrass, Poa annua), blackgrass (Alopecurus myosuroides), canarygrass (littleseed canarygrass, Phalaris minor), chickweed (common chickweed, Stellaria media), galium (catchweed bedstraw, Galium aparine), bromegrass, downy (downy bromegrass, Bromus tectorum), field poppy (Papaver rhoeas), field violet (Viola arvensis), green foxtail (Setaria viridis), deadnettle (henbit deadnettle, Lamium amplexicaule), Italian ryegrass (Lolium multiflorum), kochia (Kochia scoparia), lambsquarters (Chenopodium album), oilseed rape (Brassica napus), pigweed (Amaranthus retroflexus), chamomile (scentless chamomile, Matricaria inodora), Russian thistle (Salsola kali), speedwell (bird's-eye speedwell, Veronica persica), spring barley (Hordeum vulgare), spring wheat (Triticum aestivum), wild buckwheat (Polygonum convolvulus), wild mustard (Sinapis arvensis), wild oat (Avena fatua), wild radish (Raphanus raphanistrum), windgrass (Apera spica-venti), winter barley (Hordeum vulgare), and winter wheat (Triticum aestivum) were planted into a silt loam soil and treated preemergence with test chemicals formulated in a non-phytotoxic solvent mixture which included a surfactant.
(§2) At the same time, these species were planted in pots containing Redi-Earth® planting medium (Scotts Company, 14111 Scottslawn Road, Marysville, Ohio 43041) comprising spaghnum peat moss, vermiculite, wetting agent and starter nutrients and treated with postemergence applications of the test chemicals formulated in the same manner. Plants ranged in height from 2 to 18 cm (1- to 4-leaf stage). Treated plants and controls were maintained in a controlled growth environment for 7 to 21 days after which time all species were compared to controls and visually evaluated. Plant response ratings, summarized in Table D, are based on a scale of 0 to 100 where 0 is no effect and 100 is complete control. A dash (-) response means no test result.

canarygrass = assay: Test D preemergence; assay type: in vivo, Phalaris minor; conditions: Phalaris minor, pre-emergence; for pest or weed control at 31 g/ha: 31 g ai/ha; for pest or weed control at 62 g/ha: 62 g ai/ha; for pest or weed control at 125 g/ha: 125 g ai/ha
From the text: as §1, §2

chickweed = assay: Test D preemergence; assay type: in vivo, Stellaria media; conditions: Stellaria media, pre-emergence; for pest or weed control at 31 g/ha: 31 g ai/ha; for pest or weed control at 62 g/ha: 62 g ai/ha; for pest or weed control at 125 g/ha: 125 g ai/ha
From the text: as §1, §2

bromegrass, downy = assay: Test D preemergence; assay type: in vivo, Bromus tectorum; conditions: Bromus tectorum, pre-emergence; for pest or weed control at 31 g/ha: 31 g ai/ha; for pest or weed control at 62 g/ha: 62 g ai/ha; for pest or weed control at 125 g/ha: 125 g ai/ha
From the text: as §1, §2

oilseed rape = assay: Test D preemergence; assay type: in vivo, Brassica napus; conditions: Brassica napus, pre-emergence; for plant injury at 31 g/ha: 31 g ai/ha; for plant injury at 62 g/ha: 62 g ai/ha; for plant injury at 125 g/ha: 125 g ai/ha
From the text: as §1, §2

speedwell [1] = assay: Test D preemergence; assay type: in vivo, Veronica persica; conditions: Veronica persica, pre-emergence; for pest or weed control at 31 g/ha: 31 g ai/ha; for pest or weed control at 62 g/ha: 62 g ai/ha; for pest or weed control at 125 g/ha: 125 g ai/ha
From the text: as §1, §2

kochia = assay: Test D postemergence; assay type: in vivo, Kochia scoparia; conditions: Bassia scoparia, post-emergence; for pest or weed control at 31 g/ha: 31 g ai/ha; for pest or weed control at 62 g/ha: 62 g ai/ha; for pest or weed control at 125 g/ha: 125 g ai/ha
From the text: as §1, §2

lambsquarters = assay: Test D postemergence; assay type: in vivo, Chenopodium album; conditions: Chenopodium album, post-emergence; for pest or weed control at 31 g/ha: 31 g ai/ha; for pest or weed control at 62 g/ha: 62 g ai/ha; for pest or weed control at 125 g/ha: 125 g ai/ha
From the text: as §1, §2

speedwell [2] = assay: Test D postemergence; assay type: in vivo, Veronica persica; conditions: Veronica persica, post-emergence; for pest or weed control at 31 g/ha: 31 g ai/ha; for pest or weed control at 62 g/ha: 62 g ai/ha; for pest or weed control at 125 g/ha: 125 g ai/ha
From the text: as §1, §2

[3] = scale 0-100, read-out: Plant response rating, Blackgrass
[4] = scale 0-100, read-out: Plant response rating, Canarygrass
[5] = scale 0-100, read-out: Plant response rating, Chickweed
[6] = scale 0-100, read-out: Plant response rating, Bromegrass, Downy
[7] = scale 0-100, read-out: Plant response rating, Oilseed Rape
[8] = scale 0 (no effect) to 100 (complete control), read-out: Plant response rating, Speedwell
[9] = scale 0-100, read-out: Plant response rating, Speedwell
[10] = scale 0 to 100 (0 no effect, 100 complete control), read-out: Plant response rating, Kochia
[11] = scale 0 to 100 (0 no effect, 100 complete control), read-out: Plant response rating, Lambsquarters
[12] = scale 0 to 100 (0 no effect, 100 complete control), read-out: Plant response rating, Speedwell

Row | Compound | pest or weed control at 31 g/ha (blackgrass; [3]) [%] | pest or weed control at 62 g/ha (blackgrass; [3]) [%] | pest or weed control at 125 g/ha (blackgrass; [3]) [%] | pest or weed control at 31 g/ha (canarygrass; [4]) [%] | pest or weed control at 62 g/ha (canarygrass; [4]) [%] | pest or weed control at 125 g/ha (canarygrass; [4]) [%] | pest or weed control at 31 g/ha (chickweed; [5]) [%] | pest or weed control at 62 g/ha (chickweed; [5]) [%] | pest or weed control at 125 g/ha (chickweed; [5]) [%] | pest or weed control at 31 g/ha (bromegrass, downy; [6]) [%] | pest or weed control at 62 g/ha (bromegrass, downy; [6]) [%] | pest or weed control at 125 g/ha (bromegrass, downy; [6]) [%] | plant injury at 31 g/ha (oilseed rape; [7]) [%] | plant injury at 62 g/ha (oilseed rape; [7]) [%] | plant injury at 125 g/ha (oilseed rape; [7]) [%] | pest or weed control at 31 g/ha (speedwell [1]; [8]) [%] | pest or weed control at 62 g/ha (speedwell [1]; [9]) [%] | pest or weed control at 125 g/ha (speedwell [1]; [9]) [%] | pest or weed control at 31 g/ha (kochia; [10]) [%] | pest or weed control at 62 g/ha (kochia; [10]) [%] | also measured
1 | N#Cc1cccc(Oc2ncc(Cl)cn2)c1-n1cc(Br)cn1 [Compound 52, 2-(4-bromo-1H-pyrazol-1-yl)-3-[(5-chloro-2-pyrimidinyl)oxy]benzonitrile] | 5 | 5 | 30 | 0 | 0 | 35 | 100 | 100 | 100 | 0 | 0 | 0 | 0 | 80 | 100 | 100 | 100 | 100 | 80 | 90 | pest or weed control at 250 g/ha (blackgrass; 250 g ai/ha, scale 0-100, read-out: Plant response rating, Blackgrass): 95%; pest or weed control at 250 g/ha (canarygrass; 250 g ai/ha, scale 0-100, read-out: Plant response rating, Canarygrass): 55%; pest or weed control at 250 g/ha (chickweed; 250 g ai/ha, scale 0-100, read-out: Plant response rating, Chickweed): 100%; pest or weed control at 250 g/ha (bromegrass, downy; 250 g ai/ha, scale 0-100, read-out: Plant response rating, Bromegrass, Downy): 0%; plant injury at 250 g/ha (oilseed rape; 250 g ai/ha, scale 0-100, read-out: Plant response rating, Oilseed Rape): 100%; pest or weed control at 250 g/ha (speedwell [1]; 250 g ai/ha, scale 0-100, read-out: Plant response rating, Speedwell): 100%; pest or weed control at 125 g/ha (kochia; [10]): 90%; pest or weed control at 250 g/ha (kochia; 250 g ai/ha, scale 0 to 100 (0 no effect, 100 complete control), read-out: Plant response rating, Kochia): 90%; pest or weed control at 31 g/ha (lambsquarters; [11]): 80%; pest or weed control at 62 g/ha (lambsquarters; [11]): 75%; pest or weed control at 125 g/ha (lambsquarters; [11]): 75%; pest or weed control at 250 g/ha (lambsquarters; 250 g ai/ha, scale 0 to 100 (0 no effect, 100 complete control), read-out: Plant response rating, Lambsquarters): 95%; pest or weed control at 31 g/ha (speedwell [2]; [12]): 70%; pest or weed control at 62 g/ha (speedwell [2]; [12]): 95%; pest or weed control at 125 g/ha (speedwell [2]; [12]): 100%; pest or weed control at 250 g/ha (speedwell [2]; 250 g ai/ha, scale 0 to 100 (0 no effect, 100 complete control), read-out: Plant response rating, Speedwell): 100%
2 | Fc1cccc(Oc2ncc(Cl)cn2)c1-n1cc(C(F)F)nn1 [Compound 141, 5-chloro-2-[2-[4-(difluoromethyl)-1H-1,2,3-triazol-1-yl]-3-fluorophenoxy]pyrimidine] | 65 | 90 | 95 | 75 | 100 | 100 | 100 | 100 | 100 | 45 | 85 | 95 | 100 | 100 | 100 | 100 | 100 | 100 | 85 | 100 | pest or weed control at 16 g/ha (blackgrass; 16 g ai/ha, scale 0 (no effect) to 100 (complete control), read-out: Plant response rating, Blackgrass): 40%; pest or weed control at 16 g/ha (canarygrass; 16 g ai/ha, scale 0 (no effect) to 100 (complete control), read-out: Plant response rating, Canarygrass): 35%; pest or weed control at 16 g/ha (chickweed; 16 g ai/ha, scale 0 (no effect) to 100 (complete control), read-out: Plant response rating, Chickweed): 100%; pest or weed control at 16 g/ha (bromegrass, downy; 16 g ai/ha, scale 0 (no effect) to 100 (complete control), read-out: Plant response rating, Bromegrass, Downy): 30%; plant injury at 16 g/ha (oilseed rape; 16 g ai/ha, scale 0 (no effect) to 100 (complete control), read-out: Plant response rating, Oilseed Rape): 100%; pest or weed control at 16 g/ha (speedwell [1]; 16 g ai/ha, scale 0 (no effect) to 100 (complete control), read-out: Plant response rating, Speedwell): 100%; pest or weed control at 16 g/ha (kochia; 16 g ai/ha, scale 0-100, read-out: Plant response rating, Kochia): 70%; pest or weed control at 125 g/ha (kochia; [10]): 100%; pest or weed control at 16 g/ha (lambsquarters; 16 g ai/ha, scale 0-100, read-out: Plant response rating, Lambsquarters): 80%; pest or weed control at 31 g/ha (lambsquarters; [11]): 95%; pest or weed control at 62 g/ha (lambsquarters; [11]): 95%; pest or weed control at 125 g/ha (lambsquarters; [11]): 98%; pest or weed control at 16 g/ha (speedwell [2]; 16 g ai/ha, scale 0-100, read-out: Plant response rating, Speedwell): 100%; pest or weed control at 31 g/ha (speedwell [2]; [12]): 100%; pest or weed control at 62 g/ha (speedwell [2]; [12]): 100%; pest or weed control at 125 g/ha (speedwell [2]; [12]): 100%
